Results: US20210330756A1, “Acetylation of Miro1” (University of South Carolina, priority 2020, published 2021)

Test system: Ac-α-tubulin
Test: Immunoblotting for Ac-α-tubulin in adult DRG neurons
Assay type: cell-based, rat
Protocol: We tested for this specificity in the adult DRG neurons from above by immunoblotting. […] (A) Number of mitochondria in growth cones after exposing DRG cultures to 10 μM TubA versus vehicle (control) for 1 h is shown as average fold-change in number of mitochondria per growth cone±SEM (n=13 axons across three culture preparations; *, P≤0.05 by one-way ANOVA with Bonferroni post hoc analysis). (B) Representative EMs of Remak bundles (arrowheads) in naive Sciatic nerve and nerves after 2 h vehicle (DMSO) or TubA injection are shown. Arrows indicate mitochondria in the unmyelinated axons. Note that a Schwann cell nucleus (asterisk) is seen in the Remak bundle for DMSO image but not the other two micrographs (scale bar=3 μm). (C) Quantification of number of mitochondria per unmyelinated axon from EM images as in B is shown as average±SEM (n≥5; *****, P≤0.0001 by one-way ANOVA with Bonferroni post hoc analysis). (D-F) Quantification for indicated parameters for mitochondrial transport in sciatic nerve in vivo using tetramethylrhodamine, ethyl ester, perchlorate to visualize mitochondria is shown.
For immunoblotting, protein lysates or immunoprecipitates were denatured by boiling in Laemmli sample buffer, fractionated by SDS-PAGE, and transferred to nitrocellulose membranes. Blots were blocked for 1 h at room temperature with 5% nonfat dry milk in TBS with 0.1% Tween 20 (TBST). Primary antibodies diluted in 5% BSA in TBST were added to the membranes and incubated overnight at 4° C. with rocking. Primary antibodies consisted of rabbit anti-Myc (1:2,000; Cell Signaling; 71D10), rabbit anti-RHOT1 antibody (1:1,000; Aviva Systems Biology; ARP44817 P050), rabbit anti-HDAC6 antibody (1:2,000; Cell Signaling; 7558), rabbit anti-ERK1 (1:5,000; Abcam; ab32537), and affinity-purified custom rabbit anti-Miro1-AcK105 (1:2,500; Twiss laboratory, see above) antibodies. For the anti-Miro1-AcK105 antibody, preimmune and test-bleed sera were used at 1:1,000 dilutions to initially evaluate for specificity. […] Signals were detected using ECL Prime (GE Healthcare) after extensive washing.

Measured: Ac-α-tubulin levels

CN1CCc2c(c3ccccc3n2Cc2ccc(C(=O)NO)cc2)C1 [TubA, tubastatin]
clear increase in Ac-α-tubulin levels: 1 μM | 10 μM | 100 μM
